The source of these data is publication PMC10528180 (Foods, 2023).

Assay [1] has as its target T1, α-amylase (Sus scrofa, UniProt P00690).
T1 construct: α-amylase (EC 232-565-6, powder, ≥5 units/mg solid) isolated from porcine pancreas; purchased Sigma-Aldrich Co; host or cells: porcine pancreas
T1 sequence (P00690 16-511): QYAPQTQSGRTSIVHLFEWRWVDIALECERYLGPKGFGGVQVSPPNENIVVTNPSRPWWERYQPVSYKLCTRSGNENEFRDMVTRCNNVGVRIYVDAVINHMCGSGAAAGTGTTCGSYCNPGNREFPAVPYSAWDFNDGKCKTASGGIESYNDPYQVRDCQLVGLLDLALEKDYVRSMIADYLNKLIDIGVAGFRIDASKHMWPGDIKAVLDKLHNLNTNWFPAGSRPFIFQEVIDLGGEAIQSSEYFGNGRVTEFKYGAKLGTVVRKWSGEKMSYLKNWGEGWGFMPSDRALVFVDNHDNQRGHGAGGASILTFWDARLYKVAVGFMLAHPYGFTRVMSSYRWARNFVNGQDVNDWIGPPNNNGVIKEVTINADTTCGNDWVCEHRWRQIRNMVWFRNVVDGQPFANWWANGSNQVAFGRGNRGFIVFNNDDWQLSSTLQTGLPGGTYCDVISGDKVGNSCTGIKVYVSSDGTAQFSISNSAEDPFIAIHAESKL
As to the kind of experiment: In vitro α-amylase activity assay (G3-CNP, absorbance 405 nm). Type of assay: biochemical, porcine. The method, then:
(§1) The other reagents used in this experiment are analytically pure reagents purchased from Sigma-Aldrich Co. (St. Louis, MI, USA) unless specified otherwise.
The in vitro […] activity assay was determined using spectrophotometry, as previously reported, with only minor modifications. A total of 5 U/mL of α-amylase and the appropriate quantity of 2-chloro-4-nitrophenyl α-D-maltotrioside (G3-CNP) were produced. […] Gradient dilution with a phosphate-buffered solution was used to create sample solutions of various concentrations. First, different concentrations of compound (10 μL), an enzyme solution (40 μL), and potassium phosphate buffer (100 μL) were pre-incubated in 96-well plates at 37 °C for 10 min.
(§2) The enzymatic inhibitory activity of the tested compounds was calculated using the following formula: Inhibition %=[(Abs control−Abs sample)/Abs control]×100
(§3) The IC50 values of the tested compounds were calculated using nonlinear fitting (logit method).

In assay [2] the test system is db/db mice. The assay is described as follows: Postprandial blood glucose level measurement after oral starch load. Type of assay: in vivo. As to conditions: for glucose AUC / reduction of glucose AUC of diabetic mice: oral starch 2 g/kg; for reduction of glucose AUC of diabetic mice: vs model. The procedure:
db/db mice and C57BL/6J mice were purchased f0rom Beijing Zhishan Health Medical Research Institute. The animal testing procedure was approved by Beijing Huayuan Times Technology Co., Ltd Ethics Committee on the Management and Welfare of Laboratory Animals. (Ethics review batch number: HYSD2023-04) and strictly follows the local and national codes of ethics. All mice were placed in a control chamber at 25 °C and 60% relative humidity with a light/dark period of 12/12 h. During this period, all mice had free access to normal feed and water. […] All mice were given starch (2 g/kg) orally 60 min after treatment. Blood samples were taken from the caudal vein and blood glucose was measured after 0, 30, 60, and 120 min. The area under the curve (AUC) was calculated using the trapezoidal rule.

In assay [3] the target is T1, α-amylase. As to the kind of experiment: Inhibition kinetic analysis (Lineweaver-Burk) on α-amylase. Type of assay: biochemical, porcine. More on the design: Vmax α-amylase: unit not given beside the values. The procedure: The reactions of a series of compounds with substrates pNαPG and G3-CNP were tested using the Lineweaver–Burk expression in Equation (1) to calculate the maximum velocity (Vmax) and Michaelis–Menten constant (Km) values. (1) 1/v=Km/Vmax1/[S]+1/Vmax, where Vmax and Km are the maximum velocity of the enzyme and the Michaelis–Menten constant without inhibitor, respectively. [S] is the concentrations of the substrate and inhibitor.

Assay [4] has as its target T2, α-glucosidase (Saccharomyces cerevisiae, UniProt P53341).
T2 construct: purchased Sigma-Aldrich Co
As to the kind of experiment: biochemical. The method, then: as §1
The in vitro α-glucosidase activity assay was determined using spectrophotometry, as previously reported, with only minor modifications. In phosphate buffer with a pH of 6.8, 0.5 U/mL of α-glucosidase and the appropriate quantity of p-nitrophenyl-D-glucopyranoside (pNGP) were produced. […] Gradient dilution with a phosphate-buffered solution was used to create sample solutions of various concentrations. First, different concentrations of compound (10 μL), an enzyme solution (40 μL), and potassium phosphate buffer (100 μL) were pre-incubated in 96-well plates at 37 °C for 10 min.
as §2, §3

Each structure is given as a SMILES string.

T2 sequence (P53341 whole entry): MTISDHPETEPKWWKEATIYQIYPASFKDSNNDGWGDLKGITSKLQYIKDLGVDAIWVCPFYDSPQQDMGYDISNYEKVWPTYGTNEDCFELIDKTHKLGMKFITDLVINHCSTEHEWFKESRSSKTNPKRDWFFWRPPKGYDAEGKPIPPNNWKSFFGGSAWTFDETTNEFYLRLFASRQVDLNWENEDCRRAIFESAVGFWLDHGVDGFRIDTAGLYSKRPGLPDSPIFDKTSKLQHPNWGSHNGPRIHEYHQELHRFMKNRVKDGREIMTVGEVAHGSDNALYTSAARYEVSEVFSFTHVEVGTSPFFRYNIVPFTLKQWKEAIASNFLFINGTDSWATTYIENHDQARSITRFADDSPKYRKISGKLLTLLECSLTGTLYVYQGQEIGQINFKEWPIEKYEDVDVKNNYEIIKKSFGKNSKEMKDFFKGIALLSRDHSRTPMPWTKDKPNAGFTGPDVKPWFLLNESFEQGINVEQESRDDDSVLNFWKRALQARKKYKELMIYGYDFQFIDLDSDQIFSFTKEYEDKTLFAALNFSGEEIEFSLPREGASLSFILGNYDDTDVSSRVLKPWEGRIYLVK

By IC50 is commonly meant the point on the concentration scale where inhibition reaches its midpoint. Broadly, the inhibition is the percentage by which the read-out fell short of the control. As to `O=c1c(O)c(-c2ccc(O)c(O)c2)oc2cc(O[C@@H]3O[C@H](CO)[C@@H](O)[C@H](O)[C@H]3O)cc(O)c12` [Quercimeritrin], the IC50 in assay [1] was greater than 250 µM; in assay [4] it was 79.9 µM. Besides, the inhibition at 500 µM turned out to be 57% in assay [1] (at 500 µM, read-out: α-Amylase inhibition) and 92% in assay [4] (read-out: α-Glucosidase inhibition). Also, the “glucose AUC” value in assay [2] (100 mg/kg) is 43.7 mmol·h/L; in assay [2] (200 mg/kg), 40.7 mmol·h/L. Besides, the results for the “reduction of glucose AUC of diabetic mice” value in assay [2] (100 mg/kg) and in assay [2] (200 mg/kg) were 19.0% and 24.5%, respectively. Moreover, in assay [2] (HD group 200 mg/kg, oral starch), the “postprandial blood glucose level” value is “significantly lower than that of the control and acarbose groups”. For the same compound, the “inhibition mode on α-amylase” value in assay [3] (Lineweaver-Burk diagram) is listed as “competitive inhibition”. Besides, the “Vmax α-amylase” value worked out at 0.0521 in assay [3] ([I] 15.6 μM); 0.0532 in assay [3] ([I] 31.3 μM); 0.0522 in assay [3] ([I] 62.5 μM); 0.0526 in assay [3] ([I] 125 μM); 0.0503 in assay [3] ([I] 250 μM); 0.0508 in assay [3] ([I] 500 μM).
